From patent publication US10730851B2, “Polymorph of triaryldimethylpiperazine dihydrochloride and preparation method and application thereof” (priority 2016, dated 2020)
Counter-ions that a name gives are not always drawn. Like-named read-outs stand apart in the source and are kept apart here.

What was measured:
[1] = Dynamic solubility test in water, SGF, FeSSIF, FaSSIF; assay type: physicochemical; details: for pH in clear solution: dihydrochloride
Description: The dynamic solubility of a free base, polymorph forms B, P, F, J and O in water or a biological medium such as Stimulated Gastric Fluid (SGF), Fed State Simulated Intestinal Fluid (FeSSIF) or Fasted State Simulated Intestinal Fluid (FaSSIF) is determined.
0.2 g sodium chloride and 0.1 g Triton X-100 is weighed and placed into a 100 mL volumetric flask. Purified water is added to dissolve. A stir is performed until the solid is completely dissolved. About 135 μL concentrated hydrochloric acid solution (37%, […]) is added, then the pH is adjusted to 1.8 with […] hydrochloric acid or 1 mmoL/L sodium hydroxide. Finally, the volume is fixed with purified water to obtain Stimulated Gastric Fluid (SGF) for later use.
Each of 0.41 mL glacial acetic acid, 0.20 g sodium hydroxide and 0.59 g sodium chloride is weighed and placed to a 50 mL volumetric flask. About 48 mL purified water is added to dissolve, the pH is adjusted to 5.0 with 1 mmoL/L hydrochloric acid or 1 mmoL/L sodium hydroxide, and the volume is fixed with purified water. Then 0.56 g of Simulated Intestinal Fluid powder (SIF powder for short, which is composed of […] with a molar ratio of 4:1) is added, stirred and ultrasonically dissolved to obtain Fed State Simulated Intestinal Fluid (FeSSIF) for later use.
Each of 0.17 g of anhydrous sodium dihydrogen phosphate (NaH2PO4), 0.021 g of sodium hydroxide and 0.31 g of sodium chloride is weighed and placed into a 50 mL volumetric flask. About 48 mL of purified water is added to dissolve, the pH is adjusted to 6.5 with 1 mmoL/L hydrochloric acid or 1 mmoL/L sodium hydroxide, and the volume is fixed with purified water. 0.11 g of SIF powder is added, stirred and ultrasonically dissolved to obtain Fasted State Simulated Intestinal Fluid (FaSSIF) for later use.
Each 30 mg of the free base, and polymorph forms B, P, F, J and O are weighed. 3 mL of purified water, Stimulated Gastric Fluid (SGF), Fed State Simulated Intestinal Fluid (FeSSIF) or Fasted State Simulated Intestinal Fluid (FaSSIF)) is added and oscillated at room temperature. 0.6 mL of suspension is taken each time at a set time point, filtered and separated with a 0.45 μm nylon filter membrane, then XRPD characterization is performed on the solid sample, and the concentration in the clear solution is measured by HPLC.

SPF-grade SD rats = test: Forced swimming test; assay type: in vivo; details: for antidepressant effect in forced swimming test (in words): rats, dihydrochloride; for Behavior duration, Static / Behavior duration, Swimming / Behavior duration, Wall climbing / Number of behaviors, Static / Number of behaviors, Swimming / Number of behaviors, Wall climbing: x ± SEM
Description: Forced swimming test is used to test the antidepressant effects of polymorph forms P, F, O, B and J.
the swimming test equipment is a transparent glass round cylinder with a height of 46 cm and an inner diameter of 20 cm, the test water temperature is 23° C.˜25° C., the test water depth is 30 cm, and each cylinder is used only once.
(§1) 300 mg of a polymorph form P is weighed with an electronic balance, and the polymorph form P is dissolved with 0.9% normal saline, and finally the volume is fixed to 100 mL with 0.9% normal saline, at this time, the concentration of dihydrochloride in the experimental reagent is 3 mg/mL for later use.
as §1, with “600” for “300”, “6” for “3”
400 mg of desipramine (DMI) is weighed with an electronic balance, DMI is dissolved with 0.9% normal saline, and then the volume is fixed to 100 mL with 0.9% normal saline for later use.
Forty SPF-grade SD rats are prepared and randomly divided into 4 groups, namely vehicle control group, positive control group, experimental group 1 and experimental group 2, with 10 rats in each group. The day before the test, the rats were placed in water for 15 min to pre-swim for 15 min in advance to adapt to the swimming test environment, then taken out and dried, placed in the cage under an infrared lamp for 15 min and then placed in the original cage. After 24 h, a formal swimming test is conducted, that is, the rats are put into water again after 24 h, and the rats are continuously observed for 5 min. The swimming process are needed to be photographed. The drug is administered during two swimming sessions.
The positive control group containing DMI is administered three times, at 23.5 h, 5 h and 1 h before the formal swimming test respectively. Vehicle control group, experimental group 1 and experimental group 2 are each administered only once and subcutaneously within 1 h.
The behaviors of the rats are scored by the scorer every 5 seconds after recording the experiment.
1) Static—when the rat floats on the water surface without struggling and moves only to keep its head above the water surface, the rat is evaluated as static;
2) Swimming—if the rats have obvious swimming behaviors, not only to keep their heads above the water surface, or to travel around in a round cylinder, they are evaluated as swimming;
3) Wall climbing—the rats' front paws have obvious behavior of entering and leaving the water surface, usually, rats are evaluated as wall climbing in front of the round cylinder wall.
All behavioral are scored by a single person. To avoid bias of observation, the scorer only observed and scored without knowing the administration situations. Then multiple test fragments are randomly selected, and the scorer will score the second round to determine the accuracy of observation. The test video is scored again by the second scorer to determine the accuracy between scorers. The second scorer are also required to observe without knowing the drug administration. Finally, in order to determine the effectiveness of the method, the first scorer scored again and recorded the duration of various behaviors with a stopwatch.
SPSSwin11.0 software is used for variance analysis. One-way variance analysis is used for homogeneity of variance, and Dunnett test is used for heterogeneity of variance.

[2] = Experiment group 1, 30 mg/kg Sc once
[3] = Experiment group 2, 60 mg/kg Sc once

CC1CCN(C(=O)c2ccc([C@H](c3cccc(O)c3)N3C[C@@H](C)N(Cc4cccc(F)c4)C[C@@H]3C)cc2)CC1 [Polymorph form O, (4-((R)-((2S,5R)-4-(3-fluorobenzyl)-(2,5-dimethylpiperazine-1-yl)(3-hydroxyphenyl)methyl)phenyl)(4-methylpiperidine-1-yl)methanone dihydrochloride]
Crystal form of insoluble solid sample [1]: invariability
Solubility [1]: 6200 µg/mL
solubility compared with the free base [1]: significantly improved
pH in clear solution ([1]; FaSSIF, Time 1): 2.2
pH in clear solution ([1]; FaSSIF, Time 2): 2.0
pH in clear solution ([1]; FaSSIF, Time 4): 2.4
pH in clear solution ([1]; FaSSIF, Time 24): 2.2
pH in clear solution ([1]; FeSSIF, Time 1): 5.0
pH in clear solution ([1]; FeSSIF, Time 2): 4.8
pH in clear solution ([1]; FeSSIF, Time 4): 5.0
pH in clear solution ([1]; FeSSIF, Time 24): 5.2
pH in clear solution ([1]; SGF, Time 1): 1.5
pH in clear solution ([1]; SGF, Time 2): 1.6
pH in clear solution ([1]; SGF, Time 4): 1.6
pH in clear solution ([1]; SGF, Time 24): 1.7
pH in clear solution ([1]; Water, Time 1): 1.9
pH in clear solution ([1]; Water, Time 2): 1.8
pH in clear solution ([1]; Water, Time 4): 1.9
pH in clear solution ([1]; Water, Time 24): 1.4
solubility compared with the free base ([1]; pH 1.8): close to or slightly improved
antidepressant effect in forced swimming test (in words) (SPF-grade SD rats): effectively reduce the static times and duration of forced swimming in rats

CC1CCN(C(=O)c2ccc([C@H](c3cccc(O)c3)N3C[C@@H](C)N(Cc4cccc(F)c4)C[C@@H]3C)cc2)CC1 [Polymorph form P, (4-((R)-((2S,5R)-4-(3-fluorobenzyl)-(2,5-dimethylpiperazine-1-yl)(3-hydroxyphenyl)methyl)phenyl)(4-methylpiperidine-1-yl)methanone dihydrochloride]
solubility compared with the free base [1]: significantly improved
pH in clear solution ([1]; FaSSIF, Time 1): 3.0
pH in clear solution ([1]; FaSSIF, Time 2): 2.7
pH in clear solution ([1]; FaSSIF, Time 4): 2.2
pH in clear solution ([1]; FaSSIF, Time 24): 2.6
pH in clear solution ([1]; FeSSIF, Time 1): 5.0
pH in clear solution ([1]; FeSSIF, Time 2): 4.9
pH in clear solution ([1]; FeSSIF, Time 4): 5.0
pH in clear solution ([1]; FeSSIF, Time 24): 4.6
pH in clear solution ([1]; SGF, Time 1): 1.6
pH in clear solution ([1]; SGF, Time 2): 1.7
pH in clear solution ([1]; SGF, Time 4): 1.6
pH in clear solution ([1]; SGF, Time 24): 1.5
pH in clear solution ([1]; Water, Time 1): 1.9
pH in clear solution ([1]; Water, Time 2): 1.9
pH in clear solution ([1]; Water, Time 4): 1.9
pH in clear solution ([1]; Water, Time 24): 1.6
Crystal form of insoluble solid sample ([1]; pH 1.8): invariability
solubility compared with the free base ([1]; pH 1.8): close to or slightly improved
Solubility ([1]; pH 1.8, simulated gastric fluid, thermodynamic from solid, Solubility): 3400 µg/mL
Crystal form of insoluble solid sample ([1]; pH 5): invariability
Solubility ([1]; pH 5, fessif, thermodynamic from solid, Solubility): 430 µg/mL
Crystal form of insoluble solid sample ([1]; pH 6.5): invariability
Behavior duration, Static (SPF-grade SD rats; [2]): 45.5 ± 7.5 s
Behavior duration, Swimming (SPF-grade SD rats; [2]): 142.5 ± 21.5 s
Behavior duration, Wall climbing (SPF-grade SD rats; [2]): 114.0 ± 19.0 s
Number of behaviors, Static (SPF-grade SD rats; [2]): 9.1 ± 1.5 times
Number of behaviors, Swimming (SPF-grade SD rats; [2]): 28.5 ± 4.3 times
Number of behaviors, Wall climbing (SPF-grade SD rats; [2]): 22.8 ± 3.8 times
Behavior duration, Static (SPF-grade SD rats; [3]): 88.5 ± 8.0 s
Behavior duration, Swimming (SPF-grade SD rats; [3]): 122.0 ± 14.0 s
Behavior duration, Wall climbing (SPF-grade SD rats; [3]): 91.0 ± 5.5 s
Number of behaviors, Static (SPF-grade SD rats; [3]): 17.7 ± 1.6 times
Number of behaviors, Swimming (SPF-grade SD rats; [3]): 24.4 ± 2.8 times
Number of behaviors, Wall climbing (SPF-grade SD rats; [3]): 18.2 ± 1.1 times
antidepressant effect in forced swimming test (in words) (SPF-grade SD rats): better antidepressant effect
